Measurements published in ChEMBL document CHEMBL4138229, “Recent discovery of indoleamine-2,3-dioxygenase 1 inhibitors targeting cancer immunotherapy” (Eur J Med Chem, 2018).

How the values were obtained:
[1] = molecular target: T1, Tryptophan 2,3-dioxygenase (Homo sapiens, UniProt P48775); test: Inhibition of TDO (unknown origin)
[2] = molecular target: Indoleamine 2,3-dioxygenase 1 (Mus musculus, UniProt P28776); test: Inhibition of IDO1 in mouse P815 Clone 12 cells assessed as reduction in kynurenine production incubated for 16 to 18 hrs; type: cell-based
Indoleamine 2,3-dioxygenase 1 (Mus musculus, UniProt P28776), sequence (P28776 whole entry): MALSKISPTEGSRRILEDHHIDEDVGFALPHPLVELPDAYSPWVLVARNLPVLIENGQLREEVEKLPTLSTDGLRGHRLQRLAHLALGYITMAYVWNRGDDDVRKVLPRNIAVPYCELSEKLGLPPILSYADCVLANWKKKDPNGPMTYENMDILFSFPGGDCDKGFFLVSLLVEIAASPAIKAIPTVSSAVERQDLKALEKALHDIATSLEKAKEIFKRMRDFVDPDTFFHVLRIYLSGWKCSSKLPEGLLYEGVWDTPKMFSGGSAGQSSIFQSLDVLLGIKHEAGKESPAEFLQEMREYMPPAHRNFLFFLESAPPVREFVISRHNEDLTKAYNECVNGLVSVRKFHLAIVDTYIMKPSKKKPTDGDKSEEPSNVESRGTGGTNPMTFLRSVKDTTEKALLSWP

[3] = molecular target: T2, Indoleamine 2,3-dioxygenase 1 (Homo sapiens, UniProt P14902); test: Inhibition of human IDO1 assessed as reduction in kynurenine production
T2 sequence (P14902 whole entry): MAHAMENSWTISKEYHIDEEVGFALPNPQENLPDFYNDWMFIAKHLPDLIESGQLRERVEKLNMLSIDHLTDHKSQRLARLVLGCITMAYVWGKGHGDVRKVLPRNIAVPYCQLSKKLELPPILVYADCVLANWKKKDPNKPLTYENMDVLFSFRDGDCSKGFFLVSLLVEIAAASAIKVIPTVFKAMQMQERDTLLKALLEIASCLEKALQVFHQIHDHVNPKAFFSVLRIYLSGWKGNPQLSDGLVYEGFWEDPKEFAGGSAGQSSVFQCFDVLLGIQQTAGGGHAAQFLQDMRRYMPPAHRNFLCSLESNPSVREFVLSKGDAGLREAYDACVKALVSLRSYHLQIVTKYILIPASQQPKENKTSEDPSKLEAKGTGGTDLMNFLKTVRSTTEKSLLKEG

[4] = molecular target: T2, Indoleamine 2,3-dioxygenase 1; test: Inhibition of IDO1 in human HeLa assessed as reduction in kynurenine production; type: cell-based
[5] = molecular target: T1, Tryptophan 2,3-dioxygenase; test: Inhibition of human TDO using Trp as substrate after 90 mins by Bridge-IT tryptophan fluorescence assay
[6] = molecular target: T3, Indoleamine 2,3-dioxygenase 2 (Homo sapiens, UniProt Q6ZQW0); test: Inhibition of human IDO2 using Trp as substrate after 90 mins by Bridge-IT tryptophan fluorescence assay
T3 sequence (Q6ZQW0 whole entry): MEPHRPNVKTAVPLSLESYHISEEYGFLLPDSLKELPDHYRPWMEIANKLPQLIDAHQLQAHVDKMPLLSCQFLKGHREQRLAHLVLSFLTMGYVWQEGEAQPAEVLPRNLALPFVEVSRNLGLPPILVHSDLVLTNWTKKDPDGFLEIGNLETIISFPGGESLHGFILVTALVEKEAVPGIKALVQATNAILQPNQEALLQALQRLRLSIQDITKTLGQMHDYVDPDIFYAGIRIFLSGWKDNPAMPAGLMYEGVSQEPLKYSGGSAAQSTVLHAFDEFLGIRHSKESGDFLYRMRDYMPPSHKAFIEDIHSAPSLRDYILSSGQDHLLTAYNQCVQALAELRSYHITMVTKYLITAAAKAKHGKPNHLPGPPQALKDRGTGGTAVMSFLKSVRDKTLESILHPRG

[7] = molecular target: T2, Indoleamine 2,3-dioxygenase 1; test: Inhibition of IDO1 (unknown origin) assessed as reduction in kynurenine production by spectraphotometric assay
[8] = molecular target: T2, Indoleamine 2,3-dioxygenase 1; test: Inhibition of IDO1 (unknown origin) after 60 mins
[9] = molecular target: T2, Indoleamine 2,3-dioxygenase 1; test: Inhibition of IDO1 in human HeLa cells assessed as reduction in kynurenine production; type: cell-based
[10] = molecular target: T1, Tryptophan 2,3-dioxygenase; test: Inhibition of human TDO expressed in T-REx-293 cells; type: cell-based

T1 sequence (P48775 whole entry): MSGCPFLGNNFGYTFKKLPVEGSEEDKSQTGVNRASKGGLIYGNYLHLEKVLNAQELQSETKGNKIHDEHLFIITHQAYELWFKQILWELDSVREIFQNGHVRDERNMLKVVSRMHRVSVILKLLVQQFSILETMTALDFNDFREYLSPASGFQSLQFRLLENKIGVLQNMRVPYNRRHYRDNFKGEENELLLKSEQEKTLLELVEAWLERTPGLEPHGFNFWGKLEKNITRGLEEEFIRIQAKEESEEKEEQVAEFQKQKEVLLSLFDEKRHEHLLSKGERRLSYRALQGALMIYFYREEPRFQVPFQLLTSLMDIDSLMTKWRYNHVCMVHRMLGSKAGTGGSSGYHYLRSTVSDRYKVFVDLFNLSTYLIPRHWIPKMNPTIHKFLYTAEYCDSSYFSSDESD

SMILES: O=C1CC(c2c[nH]c3ccc(F)cc23)C(=O)N1 (stereo unspecified) [PF-06840003]
- IC50 [1]: > 50000 nM
- IC50 [2]: 94 nM

SMILES: NS(=O)(=O)NC1(CCNc2nonc2/C(=N/O)Nc2ccc(F)c(Br)c2)CC1
- IC50 [3]: 18 nM
- IC50 [4]: 3 nM

SMILES: Cc1ccc(-c2csc3nnc(SCC(=O)Nc4ccc5c(c4)OCO5)n23)cc1
- IC50 [5]: > 62500 nM
- IC50 [6]: > 250000 nM

SMILES: O/N=C(/CCC1CCCCC1)Nc1cccc(Cl)c1
- IC50 [7]: < 1000 nM

SMILES: CS(=O)(=NC#N)NCCNc1nonc1/C(=N/O)Nc1ccc(F)c(Br)c1 (stereo unspecified)
- IC50 [8]: 11 nM
- IC50 [9]: 1.8 nM

SMILES: O[C@H](C[C@H]1c2c(F)cccc2-c2cncn21)[C@H]1CC[C@H](O)CC1 [NAVOXIMOD]
- IC50 [1]: 140 nM
- IC50 [10]: 1500 nM
